The source of these data is patent US20260042755A1, “GPR6 INVERSE AGONISTS” (MapLight Therapeutics, Inc., priority 2022, published 2026).

In general, IC50 refers to the midpoint of a concentration-inhibition curve. A higher IC50 goes with a need for much substance.

The structures appear in SMILES notation. Where only a bound is given, the exact number is not on record here.

The target of one experiment is T1, GPR6 (Homo sapiens, UniProt P46095).
T1 construct: expressed in transfected cells; host or cells: CHO cells
Briefly: GPR6 antagonist functional cAMP assay (LANCE Ultra cAMP TR-FRET, CHO cells stably expressing GPR6). The class given is cell-based. In short, it runs like this:
(§1)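 Compounds, at 0.1% final DMSO, acted on the cells for 45 minutes at 37 °C in the presence of the phosphodiesterase inhibitor Ro 20-1724 (150 μM). After lysis and detection, plates were shaken 1 h at room temperature and emission at 665 nm was recorded. Normalized data gave IC50 values.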
A general note: Cyclic AMP is a second messenger, typically raised through Gs and lowered through Gi signalling.

For the next experiment, the target named is T2, GPR3 (Homo sapiens, UniProt P46089).
T2 construct: expressed in transfected cells; host or cells: CHO cells
The experiment can be described thus: GPR3 antagonist functional cAMP assay (LANCE Ultra cAMP TR-FRET, CHO cells stably expressing GPR3). It counts as cell-based. The method, boiled down:
as §1

Setting [1] is: CHO cells stably expressing GPR6, cAMP assay (Example 24).
[2] abbreviates: CHO cells stably expressing GPR3, cAMP assay (Example 24).
Setting [3] is: procedure as described in Example 24.

T2 sequence (P46089 whole entry, species assumed): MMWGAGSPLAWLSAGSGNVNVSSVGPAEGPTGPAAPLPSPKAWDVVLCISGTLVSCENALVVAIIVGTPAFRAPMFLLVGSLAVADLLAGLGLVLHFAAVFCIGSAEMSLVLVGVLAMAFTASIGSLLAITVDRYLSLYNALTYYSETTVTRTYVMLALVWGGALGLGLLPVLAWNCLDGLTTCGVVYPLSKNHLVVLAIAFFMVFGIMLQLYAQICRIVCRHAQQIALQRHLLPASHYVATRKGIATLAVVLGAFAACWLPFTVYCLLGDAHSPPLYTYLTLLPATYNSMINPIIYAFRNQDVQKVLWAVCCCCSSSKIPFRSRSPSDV
T1 sequence (P46095 whole entry): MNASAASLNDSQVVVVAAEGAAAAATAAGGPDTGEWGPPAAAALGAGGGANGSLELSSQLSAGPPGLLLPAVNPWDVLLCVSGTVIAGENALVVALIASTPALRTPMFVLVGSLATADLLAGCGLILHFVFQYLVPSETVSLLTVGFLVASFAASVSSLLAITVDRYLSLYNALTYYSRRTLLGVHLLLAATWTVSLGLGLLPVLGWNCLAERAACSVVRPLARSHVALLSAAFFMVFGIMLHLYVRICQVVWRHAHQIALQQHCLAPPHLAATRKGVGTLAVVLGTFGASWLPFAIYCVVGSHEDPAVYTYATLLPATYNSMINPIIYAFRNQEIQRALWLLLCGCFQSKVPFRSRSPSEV

As for `CC(=O)N1CCc2nc(N3CCN(Cc4ccc(Cl)cc4Cl)CC3)c(-c3ccc(F)c(N)n3)nc2C1` [Compound 637, 1-[3-(6-amino-5-fluoro-2-pyridyl)-2-{4-[(2,4-dichlorophenyl)methyl]-1-piperazinyl}-5,6,7,8-tetrahydro-1,4,6-triaza-6-naphthyl]-1-ethanone], the IC50 at GPR6 (procedure of Example 24) was in the range of 100 to 1000 nM; at GPR3 (procedure of Example 24), 1000 to 30000 nM.
With `CC(C)(O)[C@@H](O)c1cc2nc(N3CCN(Cc4ccccc4F)CC3)c(-c3cnn(C4CC4)c3)nc2cn1` (single isomer, unassigned) [Compound 742], the IC50 at GPR6 (procedure of Example 24) is 100 to 1000 nM; on GPR3 (procedure of Example 24) it was 1000 to 30000 nM.
In the case of `Cn1cc(-c2nc3cnc(C(C)(O)C(C)(C)O)cc3nc2N2CCC(Oc3ccc(F)cc3F)CC2)cn1` (stereo not drawn) [Compound 434, 2-(2-(4-(2,4-difluorophenoxy)piperidin-1-yl)-3-(1-methyl-1H-pyrazol-4-yl)pyrido[3,4-b]pyrazin-7-yl)-3-methylbutane-2,3-diol], the IC50 is 100 to 1000 nM against GPR6 (setting [1]) and 1000 to 30000 nM against GPR3 (setting [2]).
The matching figures for `CS(=O)(=O)N1CCc2nc(N3CCC(Oc4ccc(F)cc4F)CC3)c(-c3cn[nH]c3)nc2C1` [Compound 70, 2-(4-(2,4-difluorophenoxy)piperidin-1-yl)-6-(methylsulfonyl)-3-(1H-pyrazol-4-yl)-5,6,7,8-tetrahydropyrido[3,4-b]pyrazine]: 100 to 1000 nM and 1000 to 30000 nM.
The like results for `COC[C@H]1CN(Cc2ccc(F)cc2F)CCN1c1nc2ccncc2nc1-c1cnn(C)c1` (single isomer, unassigned) [Compound 238] were, in that order, 1000 to 30000 nM and 1000 to 30000 nM.
Regarding `CC(C)(O)[C@@H](O)c1cc2nc(-c3cnn(C(F)F)c3)c(N3CCN(Cc4ccccc4F)CC3)nc2cn1` (single isomer, unassigned) [Compound 686], the IC50 on GPR6 (procedure of Example 24) is less than 100 nM; against GPR3 (procedure of Example 24), 100 to 1000 nM.
Consider `CC(C)(O)[C@@](C)(O)c1cc2nc(-c3cnn(C4CC4)c3)c(N3CCN(Cc4ccccc4F)CC3)nc2cn1` (single isomer, unassigned) [Compound 776], for which the values for the concentration for half-maximal inhibition (IC50) at GPR6 (procedure of Example 24) and at GPR3 (procedure of Example 24) were 100 to 1000 nM and 1000 to 30000 nM, respectively.
For the molecule `CC(=O)N1CCc2nc(N3CCN(Cc4ccc(C#N)cc4F)CC3)c(-c3cnn(C)c3)nc2C1` [Compound 356, 4-({4-[6-acetyl-3-(1-methyl-1H-pyrazol-4-yl)-5H,6H,7H,8H-pyrido[3,4-b]pyrazin-2-yl]piperazin-1-yl}methyl)-3-fluorobenzonitrile], the IC50 against GPR6 (procedure of Example 24) and against GPR3 (procedure of Example 24) was 1000 to 30000 nM throughout.
For the molecule `COC(=O)N1CCc2nc(N3CCC(Oc4ccc(F)cc4F)CC3)c(-c3ccc(F)c(N)n3)nc2C1` [Compound 611, 6-{2-[4-(2,4-difluorophenoxy)-1-piperidyl]-6-methoxycarbonyl-5,6,7,8-tetrahydro-1,4,6-triaza-3-naphthyl}-3-fluoro-2-pyridylamine], the IC50 on GPR6 (procedure of Example 24) is less than 100 nM; on GPR3 (procedure of Example 24) it was 1000 to 30000 nM.
`CCn1cc(-c2nc3cnc([C@@](C)(O)C(C)(C)O)cc3nc2N2CCN(Cc3ccc(F)cc3F)CC2)cn1` (single isomer, unassigned) [Compound 690]: the IC50 lay in the range of 100 to 1000 nM against GPR6 (procedure of Example 24) and 1000 to 30000 nM at GPR3 (procedure of Example 24).
As to `C[C@H]1CN(Cc2ccc(F)cc2F)CCN1c1nc2ccncc2nc1-c1cnn(C)c1` (single isomer, unassigned) [Compound 225], the results for the IC50 against GPR6 (setting [1]) and against GPR3 (setting [2]) were 100 to 1000 nM and 1000 to 30000 nM, respectively.
As to `CC(=O)N1CCc2nc(N3CCC(Oc4ccc(F)cc4F)CC3)c(C3=CCOCC3)nc2C1` [Compound 198, 1-{2-[4-(2,4-difluorophenoxy)piperidin-1-yl]-3-(3,6-dihydro-2H-pyran-4-yl)-5H,6H,7H,8H-pyrido[3,4-b]pyrazin-6-yl}ethan-1-one], the values for the IC50 at GPR6 (setting [1]) and against GPR3 (setting [2]) were 100 to 1000 nM and 1000 to 30000 nM, respectively.
With `CC(=O)N1CCc2nc(N3CCN(Cc4ccc(F)c(F)c4)CC3)c(-c3cnn(C)c3)nc2C1` [Compound 321, 1-(2-{4-[(3,4-difluorophenyl)methyl]piperazin-1-yl}-3-(1-methyl-1H-pyrazol-4-yl)-5H,6H,7H,8H-pyrido[3,4-b]pyrazin-6-yl)ethan-1-one], the IC50 on GPR6 (procedure of Example 24) and at GPR3 (procedure of Example 24) was 1000 to 30000 nM in each case.
Take `Cn1cc(-c2nc3cc([C@H](O)C(C)(C)O)ncc3nc2N2CCC(=Cc3ccc(F)cc3F)CC2)cn1` (single isomer, unassigned) [Compound 764]: the IC50 on GPR6 (procedure of Example 24) was less than 100 nM; on GPR3 (procedure of Example 24), 100 to 1000 nM.
Regarding `COC[C@@H]1CN(Cc2ccc(F)cc2F)CCN1c1nc2ccncc2nc1-c1cnn(C)c1` (single isomer, unassigned) [Compound 240], the concentration for half-maximal inhibition (IC50) on GPR6 (setting [1]) and on GPR3 (setting [2]) was 1000 to 30000 nM throughout.
Turning to `COc1cncc(-c2nc3cnccc3nc2N2CC3(CC(Oc4ccc(F)cc4F)C3)C2)n1` [Compound 92, 2-(6-(2,4-difluorophenoxy)-2-azaspiro[3.3]heptan-2-yl)-3-(6-methoxypyrazin-2-yl)pyrido[3,4-b]pyrazine], the IC50 is 1000 to 30000 nM against GPR6 (setting [1]) and no less than 30000 nM at GPR3 (setting [2]).
On to `CC(=O)N1CCc2nc(N3CCN(Cc4cn[nH]c4)CC3)c(-c3cnn(C)c3)nc2C1` [Compound 536, 1-[3-(1-methyl-4-pyrazolyl)-2-{4-[(4-pyrazolyl)methyl]-1-piperazinyl}-5,6,7,8-tetrahydro-1,4,6-triaza-6-naphthyl]-1-ethanone], for which the 50% inhibitory concentration (IC50) was no less than 30000 nM on GPR6 (CHO cells stably expressing GPR6, cAMP assay) and no less than 30000 nM against GPR3 (CHO cells stably expressing GPR3, cAMP assay).
Take `COCC(=O)N1CCc2nc(N3CCC(Oc4ccc(F)cc4F)CC3)c(-c3ccc(F)c(N)n3)nc2C1` [Compound 628, 1-{3-(6-amino-5-fluoro-2-pyridyl)-2-[4-(2,4-difluorophenoxy)-1-piperidyl]-5,6,7,8-tetrahydro-1,4,6-triaza-6-naphthyl}-2-methoxy-1-ethanone]: the values for the IC50 against GPR6 (procedure of Example 24) and on GPR3 (procedure of Example 24) were 100 to 1000 nM and 1000 to 30000 nM, respectively.
The matching figures for `CC(C)(O)Cc1cc2nc(-c3cnn(C4CC4)c3)c(N3CCC(Oc4ccc(F)cc4F)CC3)nc2cn1` [Compound 704, 1-{2-(1-cyclopropyl-4-pyrazolyl)-3-[4-(2,4-difluorophenoxy)-1-piperidyl]-1,4,6-triaza-7-naphthyl}-2-methyl-2-propanol]: 100 to 1000 nM and 1000 to 30000 nM.
Consider `COc1cncc(-c2nc3cnc(CO)cc3nc2N2CCN(Cc3ccc(F)cc3F)CC2)n1` [Compound 95, (2-(4-(2,4-difluorobenzyl)piperazin-1-yl)-3-(6-methoxypyrazin-2-yl)pyrido[3,4-b]pyrazin-7-yl)methanol], for which the IC50 at GPR6 (setting [1]) and at GPR3 (setting [2]) was 1000 to 30000 nM in each case.
With `CC(C)(O)[C@@](C)(O)c1cc2nc(N3CCC(Oc4ccc(F)cc4F)CC3)c(-c3cnn(CF)c3)nc2cn1` (single isomer, unassigned) [Compound 678], the IC50 lay in the range of 100 to 1000 nM against GPR6 (procedure of Example 24) and 1000 to 30000 nM on GPR3 (procedure of Example 24).
Consider `CC(C)(O)C(O)c1cncc2nc(-c3cnn(C(F)F)c3)c(N3CCN(Cc4ccc(F)cc4F)CC3)nc12` (stereo not drawn) [Compound 679, 1-{3-[1-(difluoromethyl)-4-pyrazolyl]-2-{4-[(2,4-difluorophenyl)methyl]-1-piperazinyl}-1,4,6-triaza-8-naphthyl}-2-methyl-1,2-propanediol], for which the 50% inhibitory concentration (IC50) at GPR6 (procedure of Example 24) and against GPR3 (procedure of Example 24) was 1000 to 30000 nM throughout.
Take `Cn1cc(-c2nc3cnccc3nc2N2CCN(CC3CCCCO3)CC2)cn1` (stereo not drawn) [Compound 246, 1-[3-(1-methyl-1H-pyrazol-4-yl)pyrido[3,4-b]pyrazin-2-yl]-4-[(oxan-2-yl)methyl]piperazine]: the IC50 against GPR6 (setting [1]) and on GPR3 (setting [2]) was no less than 30000 nM each time.
Take `CC(=O)N1CCc2nc(N3CCN(Cc4ccc(OC(F)(F)F)cc4)CC3)c(-c3cnn(C)c3)nc2C1` [Compound 359, 1-[3-(1-methyl-1H-pyrazol-4-yl)-2-(4-{[4-(trifluoromethoxy)phenyl]methyl}piperazin-1-yl)-5H,6H,7H,8H-pyrido [3,4-b]pyrazin-6-yl]ethan-1-one]: the 50% inhibitory concentration (IC50) against GPR6 (procedure of Example 24) and on GPR3 (procedure of Example 24) was 1000 to 30000 nM in each case.
As to `CC(C)(O)C(O)c1cc2nc(-c3cnn(CF)c3)c(N3CCC(=Cc4ccc(F)cc4F)CC3)nc2cn1` (single isomer, unassigned) [Compound 777], the half-maximal inhibitory concentration (IC50) against GPR6 (procedure of Example 24) and at GPR3 (procedure of Example 24) was 100 to 1000 nM each time.
As to `CC(C)OC(=O)N1CCc2nc(N3CCC(Oc4ccc(F)cc4F)CC3)c(-c3cn[nH]c3)nc2C1` [Compound 121, propan-2-yl 2-[4-(2,4-difluorophenoxy)piperidin-1-yl]-3-(1H-pyrazol-4-yl)-c5H,6H,7H,8H-pyrido[3,4-b]pyrazine-6-carboxylate], the results for the IC50 against GPR6 (setting [1]) and on GPR3 (setting [2]) were 100 to 1000 nM and 1000 to 30000 nM, respectively.
For `COC[C@H](O)c1cc2nc(N3CCC(Oc4ccc(F)cc4F)CC3)c(-c3cnn(C)c3)nc2cn1` (single isomer, unassigned) [Compound 643], the IC50 on GPR6 (procedure of Example 24) is less than 100 nM; on GPR3 (procedure of Example 24), 1000 to 30000 nM.
As for `CC(C)(O)[C@H](O)c1cc2nc(N3CCN(Cc4ccc(F)cc4F)CC3)c(-c3cnn(C(F)F)c3)nc2cn1` (single isomer, unassigned) [Compound 396], the half-maximal inhibitory concentration (IC50) against GPR6 (setting [1]) was 100 to 1000 nM; against GPR3 (setting [2]), 1000 to 30000 nM.
For `CC(=O)N1CCc2nc(N3CCC(Oc4ccc(F)cc4F)CC3)c(-c3cccc(OC(C)(C)C)n3)nc2C1` [Compound 23, 1-{3-[6-(tert-butoxy)pyridin-2-yl]-2-[4-(2,4-difluorophenoxy)piperidin-1-yl]-5H,6H,7H,8H-pyrido[3,4-b]pyrazin-6-yl}ethan-1-one], the IC50 at GPR6 (setting [3]) is 1000 to 30000 nM; on GPR3 (setting [3]), 100 to 1000 nM.
As to `CC(C)(O)C(O)c1cc2nc(N3CCC(Oc4ccc(F)cc4F)CC3)c(-c3cnn(C(F)F)c3)nc2cn1` (stereo not drawn) [Compound 407, 1-{3-[1-(difluoromethyl)-4-pyrazolyl]-2-[4-(2,4-difluorophenoxy)-1-piperidyl]-1,4,6-triaza-7-naphthyl}-2-methyl-1,2-propanediol], the IC50 on GPR6 (setting [1]) is 100 to 1000 nM; on GPR3 (setting [2]), 1000 to 30000 nM.
